pIC50: −log10 of the molar value.
System: MPNST complex spheroid with HUVEC/MSC, growth, % test/control
Assay: Anticancer human tumor MPNST cell line growth inhibition [Asc];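 note: compounds left on spheroids for seven days before reading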
Details: for pIC50: curve of first compound; for viability, T/C: stronger effect = lower value
Outline: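 Complex solid-tumor spheroids incorporating human endothelial and mesenchymal stem cells received single agents or combinations over half-log dilution ranges anchored to clinical Cmax.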

SMILES: CCN1CCN(Cc2ccc(Nc3ncc(F)c(-c4cc(F)c5nc(C)n(C(C)C)c5c4)n3)nc2)CC1 + CCN1C(C(=O)NC23CCC(C(=O)O)(CC2)CC3)C(c2cccc(Cl)c2F)C2(C(=O)Nc3cc(Cl)ccc32)C12CCCCC2
- pIC50 (second compound 0.03 µM): < 6.00
- pIC50 (second compound 0.0949 µM): < 6.00
- pIC50 (second compound 0.3 µM): < 6.00
- pIC50 (second compound 0.949 µM): < 6.00
- pIC50 (second compound 3 µM): < 6.00
- viability, T/C (second compound 0.03 µM, first compound 0.00316 µM): 107%
- viability, T/C (second compound 0.03 µM, first compound 0.01 µM): 109%
- viability, T/C (second compound 0.03 µM, first compound 0.0316 µM): 88.7%
- viability, T/C (second compound 0.03 µM, first compound 0.1 µM): 75.3%
- viability, T/C (second compound 0.03 µM, first compound 0.316 µM): 64.5%
- viability, T/C (second compound 0.03 µM, first compound 1 µM): 72.6%
- viability, T/C (second compound 0.0949 µM, first compound 0.00316 µM): 98.1%
- viability, T/C (second compound 0.0949 µM, first compound 0.01 µM): 111%
- viability, T/C (second compound 0.0949 µM, first compound 0.0316 µM): 104%
- viability, T/C (second compound 0.0949 µM, first compound 0.1 µM): 106%
- viability, T/C (second compound 0.0949 µM, first compound 0.316 µM): 73.9%
- viability, T/C (second compound 0.0949 µM, first compound 1 µM): 77%
- viability, T/C (second compound 0.3 µM, first compound 0.00316 µM): 113%
- viability, T/C (second compound 0.3 µM, first compound 0.01 µM): 93.9%
- viability, T/C (second compound 0.3 µM, first compound 0.0316 µM): 87.1%
- viability, T/C (second compound 0.3 µM, first compound 0.1 µM): 103%
- viability, T/C (second compound 0.3 µM, first compound 0.316 µM): 115%
- viability, T/C (second compound 0.3 µM, first compound 1 µM): 90.1%
- viability, T/C (second compound 0.949 µM, first compound 0.00316 µM): 105%
- viability, T/C (second compound 0.949 µM, first compound 0.01 µM): 91.6%
- viability, T/C (second compound 0.949 µM, first compound 0.0316 µM): 92.1%
- viability, T/C (second compound 0.949 µM, first compound 0.1 µM): 92.3%
- viability, T/C (second compound 0.949 µM, first compound 0.316 µM): 90.2%
- viability, T/C (second compound 0.949 µM, first compound 1 µM): 91.4%
- viability, T/C (second compound 3 µM, first compound 0.00316 µM): 107%
- viability, T/C (second compound 3 µM, first compound 0.01 µM): 92%
- viability, T/C (second compound 3 µM, first compound 0.0316 µM): 91.9%
- viability, T/C (second compound 3 µM, first compound 0.1 µM): 76.5%
- viability, T/C (second compound 3 µM, first compound 0.316 µM): 89.3%
- viability, T/C (second compound 3 µM, first compound 1 µM): 85.7%

SMILES: C=C(F)C(=O)N1CCN(c2nc(OCC3CCCN3C)nc3c2CCN(c2cccc4cccc(Cl)c24)C3)CC1CC#N (configuration not stated) + CNC(C)C(=O)NC1CN(S(=O)(=O)c2cccc(S(=O)(=O)N3CCC4CCC(C(=O)NC(c5ccccc5)c5ccccc5)N4C(=O)C(NC(=O)C(C)NC)C3)c2)CCC2CCC(C(=O)NC(c3ccccc3)c3ccccc3)N2C1=O
- pIC50 (second compound 0.00316 µM): 5.43
- pIC50 (second compound 0.01 µM): 5.38
- pIC50 (second compound 0.0316 µM): 5.74
- pIC50 (second compound 0.1 µM): 5.45
- pIC50 (second compound 0.316 µM): 5.46
- pIC50 (second compound 1 µM): 5.44
- viability, T/C (second compound 0.00316 µM, first compound 0.0316 µM): 77%
- viability, T/C (second compound 0.00316 µM, first compound 0.1 µM): 75.2%
- viability, T/C (second compound 0.00316 µM, first compound 0.316 µM): 65.9%
- viability, T/C (second compound 0.00316 µM, first compound 1 µM): 89.8%
- viability, T/C (second compound 0.00316 µM, first compound 3.16 µM): 58.3%
- viability, T/C (second compound 0.00316 µM, first compound 10 µM): 1.84%
- viability, T/C (second compound 0.01 µM, first compound 0.0316 µM): 85.9%
- viability, T/C (second compound 0.01 µM, first compound 0.1 µM): 75.9%
- viability, T/C (second compound 0.01 µM, first compound 0.316 µM): 97.4%
- viability, T/C (second compound 0.01 µM, first compound 1 µM): 85%
- viability, T/C (second compound 0.01 µM, first compound 3.16 µM): 66.2%
- viability, T/C (second compound 0.01 µM, first compound 10 µM): 0.9%
- viability, T/C (second compound 0.0316 µM, first compound 0.0316 µM): 99.4%
- viability, T/C (second compound 0.0316 µM, first compound 0.1 µM): 76.5%
- viability, T/C (second compound 0.0316 µM, first compound 0.316 µM): 81.4%
- viability, T/C (second compound 0.0316 µM, first compound 1 µM): 54.6%
- viability, T/C (second compound 0.0316 µM, first compound 3.16 µM): 46.9%
- viability, T/C (second compound 0.0316 µM, first compound 10 µM): 1%
- viability, T/C (second compound 0.1 µM, first compound 0.0316 µM): 79.3%
- viability, T/C (second compound 0.1 µM, first compound 0.1 µM): 58.5%
- viability, T/C (second compound 0.1 µM, first compound 0.316 µM): 88.4%
- viability, T/C (second compound 0.1 µM, first compound 1 µM): 73.5%
- viability, T/C (second compound 0.1 µM, first compound 3.16 µM): 55.6%
- viability, T/C (second compound 0.1 µM, first compound 10 µM): 1.36%
- viability, T/C (second compound 0.316 µM, first compound 0.0316 µM): 103%
- viability, T/C (second compound 0.316 µM, first compound 0.1 µM): 52.8%
- viability, T/C (second compound 0.316 µM, first compound 0.316 µM): 61%
- viability, T/C (second compound 0.316 µM, first compound 1 µM): 69.5%
- viability, T/C (second compound 0.316 µM, first compound 3.16 µM): 57%
- viability, T/C (second compound 0.316 µM, first compound 10 µM): 1.32%
- viability, T/C (second compound 1 µM, first compound 0.0316 µM): 91.9%
- viability, T/C (second compound 1 µM, first compound 0.1 µM): 60.4%
- viability, T/C (second compound 1 µM, first compound 0.316 µM): 51%
- viability, T/C (second compound 1 µM, first compound 1 µM): 77.1%
- viability, T/C (second compound 1 µM, first compound 3.16 µM): 56.8%
- viability, T/C (second compound 1 µM, first compound 10 µM): 0.71%

Source: PubChem BioAssay AID1963442 (Molecular Pharmacology Branch, DTP, NCI, 2024)
